Values of other authors in patent EP2133696A1, “Very low concentrations of troponin I or T for assessing a cardiovascular risk with respect to the administration of anti-inflammatory drugs” (Spanuth, Eberhardt, priority 2008, dated 2009).

Compound: CS(=O)(=O)c1ccc(C2=C(c3ccccc3)C(=O)OC2)cc1 [Rofecoxib]
- additional cardiovascular incidents (myocardial infarction, stroke) (25 mg rofecoxib compared with a placebo, after 18 months of follow-up): 16 per 1,000 treated patients
- blood pressure levels (25 mg rofecoxib versus placebo, early post-observation phase): higher blood pressure levels
- rise in the rate of serious thromboembolic incidents (APPROVE study, led to premature discontinuation, patients without any recognisable cardiovascular risk): 3.9 times
